Records with an inconclusive call do not appear. Calls of active or inactive are those of the source.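 Rule for the calls: active = valid dose-response fit whose half-maximal growth-inhibiting concentration is at or below a set limit above the top tested dose; inconclusive = flat fit with effect between 30 and 70%, or poor fit; inactive = half-maximal concentration above a set limit.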
Experiment: antibacterial activity against Clostridioides difficile – 10-point retest, dose response (AID 1259246)
Details: Clostridioides difficile clinical isolate growth, OD600, 24 h

Row | Compound | activity change, negative = inhibition (at 120 µM (top of the series)) | other results
1 | CO[C@@H]1CN(C)C(=O)c2cc(NC(=O)c3nc4ccccc4s3)ccc2OC[C@@H](C)N(Cc2ccncc2)C[C@@H]1C | 14.6% (inactive) | –
2 | CC(C)NC(=O)Nc1ccc2c(c1)CC(=O)N([C@@H](C)CO)C[C@@H](C)[C@@H](CN(C)Cc1ccc(-c3ccccc3)cc1)O2 | 25% (inactive) | –
3 | CO[C@H]1CN(C)C(=O)c2cc(NC(=O)c3nc4ccccc4s3)ccc2OC[C@H](C)N(Cc2ccncc2)C[C@@H]1C | 4.91% (inactive) | –
4 | C[C@@H]1CN([C@@H](C)CO)C(=O)c2cccc(NC(=O)Nc3ccc4c(c3)OCO4)c2O[C@@H]1CN(C)Cc1ccccc1 | 19.1% (inactive) | –
5 | C[C@@H]1CN([C@@H](C)CO)S(=O)(=O)c2ccc(C#CC3CCCCC3)cc2O[C@H]1CN(C)Cc1cccnc1 | 17.6% (inactive) | –
6 | CO[C@@H]1CN(C)C(=O)c2cc(NC(=O)c3ccc(-c4ccccc4)cc3)ccc2OC[C@H](C)NC[C@H]1C | 9.68% (inactive) | –
7 | C[C@@H]1CN([C@H](C)CO)C(=O)Cc2cc(NC(=O)C3CC3)ccc2O[C@@H]1CN(C)Cc1ccccc1 | -3.71% (inactive) | –
8 | Cc1ccc(-c2ccc3c(c2)O[C@H](CN(C)Cc2ccncc2)[C@@H](C)CN([C@H](C)CO)S3(=O)=O)cc1 | 22.9% (inactive) | –
9 | O=C(C[C@H]1C[C@@H]2c3cc(NC(=O)C4CCC4)ccc3O[C@@H]2[C@@H](CO)O1)NCCc1ccccc1 | – | activity change, negative = inhibition (at 60 µM (top of the series)): 0.211% (inactive)
10 | C[C@@H]1CN([C@@H](C)CO)C(=O)c2cc(NC(=O)Nc3cccc4ccccc34)ccc2O[C@@H](C)CCCCO[C@@H]1CN(C)S(=O)(=O)c1ccc(F)cc1 | – | activity change, negative = inhibition (at 135 µM (top of the series)): 17.6% (inactive)
11 | C[C@H]1CN([C@@H](C)CO)S(=O)(=O)c2ccc(C3=CCCCC3)cc2O[C@@H]1CN(C)Cc1cccnc1 | 13.2% (inactive) | –
12 | Cc1ccc(S(=O)(=O)N[C@@H]2CC[C@H](CCNS(=O)(=O)Cc3ccccc3)O[C@@H]2CO)cc1 | -5.03% (inactive) | –
13 | O=C(C[C@@H]1C[C@H]2c3cc(NC(=O)C4CCC4)ccc3O[C@H]2[C@H](CO)O1)NCc1ccc(Cl)cc1 | – | activity change, negative = inhibition (at 60 µM (top of the series)): -4.77% (inactive)
14 | Cc1ccc(-c2ccc3c(c2)O[C@@H](CN(C)Cc2ccncc2)[C@H](C)CN([C@@H](C)CO)S3(=O)=O)cc1 | 21.6% (inactive) | –
15 | N#C[C@H]1[C@@H](c2ccc(C#CC3CCCCC3)cc2)[C@@H](CO)N1C(=O)Cc1ccccn1 | 40.2% (inactive) | –
16 | C[C@H](CO)N1C[C@H](C)[C@H](CN(C)Cc2ccc(F)cc2)Oc2ncc(-c3cc4ccccc4o3)cc2C1=O | – | activity change, negative = inhibition (at 135 µM (top of the series)): 52.5% (inactive)
17 | CO[C@@H]1CN(C)C(=O)c2cc(NC(=O)c3nc4ccccc4s3)ccc2OC[C@@H](C)N(Cc2ccncc2)C[C@H]1C | – | activity change, negative = inhibition (at 135 µM (top of the series)): 14.2% (inactive)
18 | C[C@@H]1CN([C@H](C)CO)C(=O)Cc2cc(NS(C)(=O)=O)ccc2O[C@@H]1CN(C)Cc1ccc(-c2ccccc2)cc1 | – | activity change, negative = inhibition (at 135 µM (top of the series)): 20% (inactive)
19 | C[C@@H]1CN([C@@H](C)CO)C(=O)c2cccc(NC(=O)Nc3ccc(C(F)(F)F)cc3)c2O[C@H]1CN(C)S(=O)(=O)c1ccc(Cl)cc1 | 50.7% (inactive) | activity change, negative = inhibition (at 68 µM (top of the series)): 12.7% (inactive)
20 | C[C@@H]1CN([C@@H](C)CO)S(=O)(=O)c2ccc(/C=C/c3ccccc3)cc2O[C@H]1CN(C)Cc1cccnc1 | 71.2% (inactive) | –

Row | Compound | activity change, negative = inhibition (at 120 µM (top of the series)) | other results
21 | COC(=O)C[C@H]1C[C@@H]2c3cc(NC(=O)C4CCC4)ccc3O[C@@H]2[C@@H](CO)O1 | -6.56% (inactive) | –
22 | O=C(C[C@@H]1C[C@@H]2c3cc(NC(=O)Nc4ccc(F)cc4)ccc3O[C@@H]2[C@H](CO)O1)NC1CCCCC1 | -4.54% (inactive) | –
23 | CC(C)CC#Cc1ccc2c(c1)O[C@@H](CN(C)Cc1ccc3c(c1)OCO3)[C@H](C)CN([C@@H](C)CO)S2(=O)=O | 11% (inactive) | –
24 | CC(C)C#Cc1ccc2c(c1)O[C@H](CN(C)CC1CCOCC1)[C@H](C)CN([C@@H](C)CO)S2(=O)=O | 4.6% (inactive) | –
25 | CO[C@H]1CN(C)C(=O)c2ccc(NC(=O)c3ccc(-c4ccccc4)cc3)cc2OC[C@H](C)NC[C@@H]1C | 5.28% (inactive) | –
26 | C[C@H]1CN([C@@H](C)CO)C(=O)Cc2cc(NC(=O)C3CC3)ccc2O[C@@H]1CN(C)Cc1ccc(Oc2ccccc2)cc1 | – | activity change, negative = inhibition (at 135 µM (top of the series)): 17.9% (inactive)
27 | CNC[C@H]1Oc2ccc(N)cc2CC(=O)N([C@H](C)CO)C[C@H]1C | -8.02% (inactive) | –
28 | C[C@H](CO)N1C[C@H](C)[C@H](CN(C)Cc2ccc(-c3ccccc3)cc2)Oc2c(NC(=O)Nc3ccc(C(F)(F)F)cc3)cccc2C1=O | 16.3% (inactive) | –
29 | C[C@H](CO)N1C[C@H](C)[C@@H](CN(C)Cc2cccnc2)Oc2cc(Br)ccc2S1(=O)=O | -1.18% (inactive) | –
30 | C[C@@H]1CN([C@@H](C)CO)C(=O)c2cccc(NC(=O)Nc3ccccc3)c2O[C@H]1CN(C)Cc1ccc(Oc2ccccc2)cc1 | 26.1% (inactive) | –
31 | C[C@@H]1CN([C@@H](C)CO)C(=O)Cc2cc(NC(=O)C3CC3)ccc2O[C@@H]1CN(C)Cc1ccc(-c2ccccc2)cc1 | 20.7% (inactive) | –
32 | C[C@@H]1CN([C@@H](C)CO)C(=O)Cc2cc(NC(=O)C3CC3)ccc2O[C@H]1CN(C)Cc1ccc(Oc2ccccc2)cc1 | – | activity change, negative = inhibition (at 135 µM (top of the series)): 48% (inactive)
33 | CO[C@H]1CN(C)C(=O)c2ccc(NC(=O)c3nc4ccccc4s3)cc2OC[C@H](C)NC[C@@H]1C | -6.99% (inactive) | –
34 | O=C(N[C@H]1CC[C@H](CCNS(=O)(=O)c2ccc(Cl)cc2)O[C@H]1CO)c1ccccn1 | -10.3% (inactive) | –
35 | C[C@H]1CCCCO[C@@H](CN(C)S(=O)(=O)c2ccc(F)cc2)[C@@H](C)CN([C@@H](C)CO)C(=O)c2cc(NC(=O)Nc3cccc4ccccc34)ccc2O1 | 42.1% (inactive) | –
36 | C[C@@H]1CN([C@H](C)CO)C(=O)Cc2cc(NC(=O)C3CCCCC3)ccc2O[C@@H]1CN(C)Cc1ccc(-c2ccccc2)cc1 | 25.3% (inactive) | –
37 | O=C(C[C@@H]1C[C@@H]2c3cc(NC(=O)Nc4ccccc4)ccc3O[C@@H]2[C@@H](CO)O1)NC1CCCC1 | 2.79% (inactive) | –
38 | CO[C@@H]1CN(C)C(=O)c2ccc(NC(=O)c3nc4ccccc4s3)cc2OC[C@H](C)N(Cc2ccncc2)C[C@H]1C | 7.34% (inactive) | –
39 | COc1ccccc1S(=O)(=O)N(C)C[C@@H]1Oc2cc(/C=C/c3ccccc3)ccc2S(=O)(=O)N([C@@H](C)CO)C[C@H]1C | 32.3% (inactive) | –
40 | C[C@@H]1CN([C@H](C)CO)C(=O)Cc2cc(NC(=O)C3CC3)ccc2O[C@H]1CN(C)Cc1ccc(-c2ccccc2)cc1 | 18.8% (inactive) | –

Row | Compound | activity change, negative = inhibition (at 120 µM (top of the series)) | other results
41 | C[C@H](CO)N1C[C@H](C)[C@H](CN(C)Cc2ccc(Oc3ccccc3)cc2)Oc2ccc(NC(=O)CCCN(C)C)cc2CC1=O | – | activity change, negative = inhibition (at 135 µM (top of the series)): 34.3% (inactive)
42 | CC(C)CC#Cc1ccc2c(c1)O[C@@H](CN(C)Cc1ccc(C(=O)O)cc1)[C@H](C)CN([C@@H](C)CO)S2(=O)=O | – | activity change, negative = inhibition (at 60 µM (top of the series)): 2.34% (inactive)
43 | C[C@@H]1CN([C@H](C)CO)S(=O)(=O)c2ccc(/C=C/c3ccccc3)cc2O[C@H]1CN(C)Cc1ccccc1 | – | activity change, negative = inhibition (at 60 µM (top of the series)): 2.59% (inactive)
44 | CO[C@H]1CN(C)C(=O)c2ccc(NC(=O)c3ccc(-c4ccccc4)cc3)cc2OC[C@@H](C)NC[C@H]1C | 31.5% (inactive) | –
45 | Cc1ccc(S(=O)(=O)N[C@@H]2CC[C@@H](CCNS(=O)(=O)Cc3ccccc3)O[C@@H]2CO)cc1 | -1.17% (inactive) | –
46 | O=C(C[C@H]1C[C@@H]2c3cc(NC(=O)Nc4ccccc4)ccc3O[C@@H]2[C@H](CO)O1)NC1CCCC1 | – | activity change, negative = inhibition (at 135 µM (top of the series)): -0.545% (inactive)
47 | O=C(C[C@H]1C[C@H]2c3cc(NS(=O)(=O)c4ccc(F)cc4)ccc3O[C@H]2[C@@H](CO)O1)NCc1ccc(-c2ccccc2)cc1 | 10.6% (inactive) | –
48 | CNC[C@@H]1Oc2ccc(N)cc2CC(=O)N([C@H](C)CO)C[C@H]1C | – | activity change, negative = inhibition (at 60 µM (top of the series)): 0.918% (inactive)
49 | C[C@@H]1CN([C@@H](C)CO)C(=O)Cc2cc(NC(=O)C3CC3)ccc2O[C@@H]1CN(C)Cc1ccc(Cl)c(Cl)c1 | – | activity change, negative = inhibition (at 135 µM (top of the series)): 16.4% (inactive)
50 | C[C@@H]1CN([C@H](C)CO)C(=O)Cc2cc(NC(=O)CCC(F)(F)F)ccc2O[C@H]1CN(C)Cc1ccc(-c2ccccc2)cc1 | – | activity change, negative = inhibition (at 135 µM (top of the series)): 15.9% (inactive)
51 | O=C(C[C@@H]1C[C@H]2c3cc(NC(=O)Nc4ccc(F)cc4)ccc3O[C@H]2[C@@H](CO)O1)NC1CCCCC1 | -2.82% (inactive) | –
52 | Cc1ccc(-c2ccc3c(c2)O[C@H](CN(C)Cc2cccnc2)[C@@H](C)CN([C@@H](C)CO)S3(=O)=O)cc1 | 25.7% (inactive) | –
53 | C[C@@H]1CN([C@H](C)CO)S(=O)(=O)c2ccc(C3=CCCCC3)cc2O[C@H]1CN(C)Cc1cccnc1 | 19% (inactive) | –
54 | CC(C)CC#Cc1ccc2c(c1)O[C@H](CN(C)Cc1ccccc1)[C@@H](C)CN([C@@H](C)CO)S2(=O)=O | 35.7% (inactive) | –
55 | C[C@@H]1CN([C@H](C)CO)C(=O)Cc2cc(NC(=O)C3CC3)ccc2O[C@H]1CN(C)Cc1ccc(Oc2ccccc2)cc1 | 20.2% (inactive) | –
56 | C[C@@H]1CN([C@H](C)CO)C(=O)Cc2cc(NC(=O)c3ccncc3)ccc2O[C@@H]1CN(C)Cc1ccc(-c2ccccc2)cc1 | – | activity change, negative = inhibition (at 135 µM (top of the series)): 20.6% (inactive)
57 | CO[C@@H]1CN(C)C(=O)c2ccc(NC(=O)c3nc4ccccc4s3)cc2OC[C@@H](C)N(Cc2cccnc2)C[C@H]1C | 14.9% (inactive) | –
58 | COc1ccc(NC(=O)Nc2cccc3c2O[C@H](CN(C)Cc2ccc(Oc4ccccc4)cc2)[C@H](C)CN([C@H](C)CO)C3=O)cc1 | -0.653% (inactive) | –
59 | C[C@@H]1CN([C@H](C)CO)C(=O)Cc2cc(NC(=O)C3CC3)ccc2O[C@@H]1CN(C)Cc1ccc(Oc2ccccc2)cc1 | 22.6% (inactive) | –
